In the NIST ThermoML archive (doi:10.1021/je050540h):

Test: xn = mol fraction of the nth substance listed
Conditions: 101 kPa, Liquid

CCC(C)O (configuration not stated) [butan-2-ol] + C1CCCC1
x2 = 0
Conditions | mass density [kg/m3] | speed of sound [m/s] | viscosity [mPa·s]
293.15 K | 806.84 | 1230 | 3.623
298.15 K | 802.72 | 1212 | 2.995
303.15 K | 798.51 | 1194 | 2.493

CCC(C)O (configuration not stated) [butan-2-ol] + C1CCCCC1
Conditions | mass density, 293.15 K [kg/m3] | mass density, 298.15 K [kg/m3] | mass density, 303.15 K [kg/m3] | speed of sound, 293.15 K [m/s] | speed of sound, 298.15 K [m/s] | speed of sound, 303.15 K [m/s] | viscosity, 293.15 K [mPa·s] | viscosity, 298.15 K [mPa·s] | viscosity, 303.15 K [mPa·s]
x2 = 0 | 806.84 | 802.72 | 798.51 | 1230 | 1212 | 1194 | 3.623 | 2.995 | 2.493
x2 = 0.0494 | 804.24 | 800.04 | 795.77 | 1228 | 1210 | 1191 | 3.231 | 2.687 | 2.251
x2 = 0.1003 | 801.95 | 797.69 | 793.34 | 1226 | 1207 | 1188 | 2.915 | 2.444 | 2.066
x2 = 0.1969 | 797.77 | 793.37 | 788.88 | 1223 | 1204 | 1184 | 2.227 | 1.891 | 1.623
x2 = 0.3052 | 793.48 | 788.95 | 784.34 | 1222 | 1201 | 1181 | 1.726 | 1.489 | 1.294
x2 = 0.4044 | 789.86 | 785.24 | 780.54 | 1222 | 1201 | 1179 | 1.48 | 1.299 | 1.142
x2 = 0.5004 | 786.73 | 782.04 | 777.29 | 1224 | 1202 | 1180 | 1.315 | 1.166 | 1.042
x2 = 0.6016 | 783.91 | 779.18 | 774.41 | 1228 | 1205 | 1183 | 1.16 | 1.042 | 0.942
x2 = 0.7145 | 781.42 | 776.68 | 772.02 | 1236 | 1213 | 1189 | 1.066 | 0.968 | 0.888
x2 = 0.8067 | 779.85 | 775.08 | 770.26 | 1245 | 1222 | 1198 | 0.98 | 0.892 | 0.817
x2 = 0.9046 | 778.86 | 774.06 | 769.22 | 1259 | 1235 | 1211 | 0.962 | 0.879 | 0.806
x2 = 0.9523 | 778.43 | 773.65 | 768.82 | 1267 | 1242 | 1218 | 0.993 | 0.908 | 0.833
